Source: patent US20080267882A1, “Imaging compounds, methods of making imaging compounds, methods of imaging, therapeutic compounds, methods of making therapeutic compounds, and methods of therapy” (Stanford University, priority 2007, published 2008)
Like-named read-outs stand apart in the source and are kept apart here.

Columns and labels:
[1] = molecular target: T1, integrin αvβ3 (Homo sapiens, UniProt P05106+P06756); assay: competitive cell binding assay using ^125I-echistatin on U87MG cells; conditions: for receptor binding multivalent enhancement ratio (MVE): IC50 of RGD monomer divided by IC50 of RGD multimer
T1 construct: evaluated using U87MG cells (integrin αvβ3-positive); endogenous in cells; host or cells: U87MG human glioblastoma cells (ATCC)
Protocol: Experiments were performed on U87MG human glioblastoma cells with triplicate samples as previously reported.
In vitro integrin αvβ3-binding affinities and specificities of RGD4, PRGD4 and FPRGD4 were assessed via displacement cell binding assays using ^125I-echistatin as the integrin αvβ3-specific radioligand. Experiments were performed on U87MG human glioblastoma cells by the method previously described (J Nucl Med. 2005;46:1707-1718 J Nucl Med. 2006;47:1172-1180, which is incorporated herein by reference for the corresponding discussion). […] Experiments were performed with triplicate samples.
Experiments were performed with triplicate samples.
In vitro integrin-binding affinity and specificity of RGD multimers and DOTA-RGD multimers were assessed via competitive cell binding assays using ^125I-echistatin as the integrin αvβ3-specific radioligand (J Nucl Med. 2005;46:1707-1718, which is incorporated herein by reference for the corresponding discussion). […] Experiments were performed with triplicate samples.

[2] = system: U87MG cells; assay: cell adhesion assay on vitronectin coated plates; assay type: cell-based, human; conditions: for anti-adhesion multivalent enhancement ratio (MVE): IC50 of RGD monomer divided by IC50 of RGD multimer
Protocol: Ninety-six well plates were coated with 2 μg/mL of fibronectin or vitronectin (Sigma-Aldrich) in PBS at 4° C. overnight and treated with 2% bovine serum albumin (BSA) for 1 h at 37° C. U87MG cells (human glioblastoma, ATCC; 2×10^5 cells/mL) with various concentrations of RGD multimers (50 nM, 200 nM, 800 nM) in 100 μL serum-free Dulbecco's modified Eagle's medium (DMEM) containing 0.1% BSA were incubated for 20 min at 37° C. The resulting mixture was added to the plates and incubated for 1 h at 37° C. Plates treated with BSA only were used as negative control. After removal of the medium by aspiration, 0.04% crystal violet solution was added and incubated for 10 min at room temperature. The wells were washed three times with PBS and 20 μL Triton X-100 were added for permeabilization. Distilled water (80 μL) was then added and the number of adherent cells was assessed with a microplate reader (Tecan; measurement wavelength: 550 nm; reference wavelength: 630 nm).

[3] = system: U87MG tumor-bearing mice; assay: in vivo; conditions: mouse
Protocol: (§1) PET scans and image analysis were performed using a microPET R4 rodent model scanner (Siemens Medical Solutions) as previously reported (J Nucl Med 2006;47:113-121 and J Nucl Med 2005;46:1707-1718, each of which is incorporated herein by reference for the corresponding discussion). Each mouse was tail-vein injected with about 3.7 MBq (100 μCi) of ^18F-FPRGD2 under isoflurane anesthesia. The 30-min dynamic scan (1×30 s, 4×1 min, 1×1.5 min, 4×2 min, 1×2.5 min, 4×3 min, total of 15 frames) was started 1 min after injection. Five min static PET images were also acquired at 1 h and 2 h post-injection (p.i.). The images were reconstructed by a 2-dimensional ordered-subsets expectation maximum (OSEM) algorithm and no correction was applied for attenuation or scatter.
(§2) PET scans and image analysis were performed using a microPET R4 rodent model scanner (Siemens Medical Solutions) as previously reported. For U87MG tumor model, mice (n=3) were tail-vein injected with about 3.7 MBq (100 μCi) of ^18F-FPRGD4 under isoflurane anesthesia and then subjected to a 30-min dynamic scan (1×30 s, 4×1 min, 1×1.5 min, 4×2 min, 1×2.5 min, 4×3 min, total of 15 frames) starting from 1 min p.i. Five min static PET images were also acquired at 1, 2, and 3 h p.i. The images were reconstructed by 2-dimensional ordered-subsets expectation maximum (OSEM) algorithm. No attenuation or scatter correction was applied. […] The 5-min static PET scans was then acquired at 30 min and 1 h p.i. Multiple time point static scans were also obtained for orthotopic MDA-MB-435, c-neu oncomouse, and subcutaneous DU145 tumor models after tail-vein injected with 3.7 MBq of ^18F-FPRGD4.
(§3) For each microPET scan, regions of interest (ROIs) were drawn over the tumor, normal tissue, and major organs by using vendor software (ASI Pro 5.2.4.0) on decay-corrected whole-body coronal images. The maximum radioactivity concentration (accumulation) within a tumor or an organ was obtained from mean pixel values within the multiple ROI volume, which were converted to counts/mL/min by using a conversion factor. Assuming a tissue density of 1 g/mL, the ROIs were converted to counts/g/min and then divided by the administered activity to obtain an imaging ROI-derived % ID/g. […]
(§4) PET scans and image analysis were performed using a microPET R4 rodent model scanner (Siemens Medical Solutions) as previously reported (J Nucl Med. 2005;46:1707-1718 and J Nucl Med. 2006;47:113-121, each of which is incorporated herein by reference for the corresponding discussion). About 9.3 MBq of ^64Cu-DOTA-RGD multimer was intravenously injected into each mouse under isoflurane anesthesia. Five minute static scans were acquired at 30 min, 1 h, 2 h, 6 h, and 20 h p.i. The images were reconstructed by a 2-dimensional ordered-subsets expectation maximum (OSEM) algorithm and no correction was applied for attenuation and scatter. For each microPET scan, regions of interest (ROIs) were drawn over the tumor, normal tissue, and major organs on decay-corrected whole-body coronal images. The radioactivity concentration (accumulation) within a tumor was obtained from the maximum value within the multiple ROIs and then converted to % ID/g.
(§5) PET scans and image analysis were performed using a microPET R4 rodent model scanner (Siemens Medical Solutions) as previously reported (J Nucl Med. 2006;47:113-21 and J Nucl Med. 2005;46:1707-18, which is incorporated herein by reference for the corresponding discussion). […] The 60-min dynamic scan (5×1 min, 10×3 min, 5×5 min, total of 20 frames) was started 1 min after injection. A 2 h time point static scan was also acquired after the 60 min dynamic scan. Five min static PET images were also acquired separately at 30 min, 1 h and 2 h time points post-injection (p.i.) for another set of tumor-bearing mice (n=3/tracer). The images were reconstructed by a 2-dimensional ordered-subsets expectation maximum (OSEM) algorithm and no correction was necessary for attenuation or scatter correction. […]

[4] = in vivo; conditions: mouse, iv, 3.7 MBq, total radioactivity, U87MG tumor uptake
Protocol: as §1, §2, §3, §4, §5

[5] = mouse, in vivo
Protocol: A U87MG tumor mouse was intravenously injected with 3.7 MBq of ^18F-FPRGD2. At 1 h after injection, the mouse was sacrificed, the blood, urine, liver, kidneys, and the U87MG tumor were collected and metabolite analysis was carried out as previously reported (J Nucl Med 2006;47: 113-121 and J Nucl Med 2006;47:1172-1180, each of which is incorporated herein by reference for the corresponding discussion). In brief, blood sample was immediately centrifuged for 5 min at 13,200 rpm. Other tissues were homogenized and then centrifuged for 5 min at 13,200 rpm. The supernatant was each passed through a C18 Sep-Pak cartridge. The urine sample was directly diluted with 1 mL of PBS and passed through a C18 Sep-Pak cartridge. The cartridges were each washed with 2 mL of water and eluted with 2 mL of ACN containing 0.1% TFA. The ACN eluent was concentrated and injected onto the analytical HPLC. The eluent was collected with a fraction collector (0.5 min/fraction) and the radioactivity of each fraction was measured with the γ-counter.
The metabolic stability of ^18F-FPTA-RGD2 was evaluated in an athymic nude mouse bearing a U87MG tumor. Sixty min after intravenous injection of 2 MBq of ^18F-FPTA-RGD2, the mouse was sacrificed and relevant organs were harvested. The blood was collected and immediately centrifuged for 5 min at 13,200 rpm. Liver, kidneys and tumor were homogenized and then centrifuged for 5 min at 13,200 rpm. After removal of the supernatants, the pellets were washed with 1 mL PBS. For each sample, supernatants of both centrifugation steps of blood, liver, and kidneys were combined and passed through C18 Sep-Pak cartridges. The urine sample was directly diluted with 1 mL of PBS and passed through a C18 Sep-Pak cartridge. The cartridges were each washed with 2 mL of water and eluted with 2 mL of ACN containing 0.1% TFA. After evaporation of the solvent, the residues were redissolved in 1 mL PBS and were injected onto the analytical HPLC. The eluent was collected with a fraction collector (0.5 min/fraction) and the radioactivity of each fraction was measured with the γ-counter.

[6] = Example 4, n=3, read-out: IC50 (inhibition of ^125I-echistatin binding to U87MG cells)

In the case of `N=C(N)NCCC[C@@H]1NC(=O)[C@H](CCCCNC(=O)CC[C@H](NC(=O)CC[C@H](N)C(=O)N[C@@H](CCC(=O)NCCCC[C@@H]2NC(=O)[C@@H](Cc3ccc(O)cc3)NC(=O)[C@H](CC(=O)O)NC(=O)CNC(=O)[C@H](CCCNC(=N)N)NC2=O)C(=O)NCCCC[C@@H]2NC(=O)[C@@H](Cc3ccc(O)cc3)NC(=O)[C@H](CC(=O)O)NC(=O)CNC(=O)[C@H](CCCNC(=N)N)NC2=O)C(=O)NCCCC[C@@H]2NC(=O)[C@@H](Cc3ccc(O)cc3)NC(=O)[C@H](CC(=O)O)NC(=O)CNC(=O)[C@H](CCCNC(=N)N)NC2=O)NC(=O)[C@@H](Cc2ccc(O)cc2)NC(=O)[C@H](CC(=O)O)NC(=O)CNC1=O` [RGD4, E{E[c(RGDyK)]2}2], the IC50 ([1]; Example 2, n=3, read-out: IC50 (inhibition of ^125I-echistatin binding to U87MG cells)) is reported as 39.1 ± 5.5 nM, the “fold higher integrin αvβ3 avidity than the RGD dimer” value ([1]; Example 4) is reported as “about 3 fold” and the IC50 [1, 6] is reported as 35 nM. The “receptor binding multivalent enhancement ratio (MVE)” value [1] was 5.9, the “anti-adhesion multivalent enhancement ratio (MVE)” value [2] was 8.4 and the IC50 ([2]; vitronectin coated plates, n=4, read-out: calculated IC50 (inhibition of U87MG cell adhesion)) was 320 nM.

With `N=C(N)NCCC[C@@H]1NC(=O)[C@H](CCCCNC(=O)CC[C@H](NC(=O)CC[C@H](NC(=O)CC[C@H](N)C(=O)N[C@@H](CCC(=O)N[C@@H](CCC(=O)NCCCC[C@@H]2NC(=O)[C@@H](Cc3ccc(O)cc3)NC(=O)[C@H](CC(=O)O)NC(=O)CNC(=O)[C@H](CCCNC(=N)N)NC2=O)C(=O)NCCCC[C@@H]2NC(=O)[C@@H](Cc3ccc(O)cc3)NC(=O)[C@H](CC(=O)O)NC(=O)CNC(=O)[C@H](CCCNC(=N)N)NC2=O)C(=O)N[C@@H](CCC(=O)NCCCC[C@@H]2NC(=O)[C@@H](Cc3ccc(O)cc3)NC(=O)[C@H](CC(=O)O)NC(=O)CNC(=O)[C@H](CCCNC(=N)N)NC2=O)C(=O)NCCCC[C@@H]2NC(=O)[C@@H](Cc3ccc(O)cc3)NC(=O)[C@H](CC(=O)O)NC(=O)CNC(=O)[C@H](CCCNC(=N)N)NC2=O)C(=O)N[C@@H](CCC(=O)NCCCC[C@@H]2NC(=O)[C@@H](Cc3ccc(O)cc3)NC(=O)[C@H](CC(=O)O)NC(=O)CNC(=O)[C@H](CCCNC(=N)N)NC2=O)C(=O)NCCCC[C@@H]2NC(=O)[C@@H](Cc3ccc(O)cc3)NC(=O)[C@H](CC(=O)O)NC(=O)CNC(=O)[C@H](CCCNC(=N)N)NC2=O)C(=O)NCCCC[C@@H]2NC(=O)[C@@H](Cc3ccc(O)cc3)NC(=O)[C@H](CC(=O)O)NC(=O)CNC(=O)[C@H](CCCNC(=N)N)NC2=O)NC(=O)[C@@H](Cc2ccc(O)cc2)NC(=O)[C@H](CC(=O)O)NC(=O)CNC1=O` [RGD octamer, E(E{E[c(RGDyK)]2}2)2] the “further fold increase of integrin avidity over RGD tetramer” value ([1]; Example 4) was 3 fold, the IC50 ([1]; Example 4, introduction, read-out: IC50 value (αvβ3 integrin binding)) was 10 nM and the IC50 [1, 6] was 10 nM. The “receptor binding multivalent enhancement ratio (MVE)” value [1] was 20.3, the “anti-adhesion multivalent enhancement ratio (MVE)” value [2] was 25.6 and the “times as effective as the RGD monomer” value ([2]; vitronectin coated plates) was 27 times.

With `N=C(N)NCCC[C@@H]1NC(=O)[C@H](CCCCNC(=S)Nc2ccc(C[C@H]3CN(CC(=O)O)CCN(CC(=O)O)CCN3CC(=O)O)cc2)NC(=O)[C@@H](Cc2ccc(O)cc2)NC(=O)[C@H](CC(=O)O)NC(=O)CNC1=O` [^68Ga-NOTA-RGD1, metal not drawn] the U87MG tumor uptake ([3]; iv, 3.7 MBq, 5 min) was 3.24 % ID/g, the tissue uptake at 0.5 h ([4]; athymic nude) was 1.9 ± 0.2 %ID/g and the tissue uptake at 1 h ([4]; athymic nude) was 1.4 ± 0.2 %ID/g. It also gave a tissue uptake at 2 h ([4]; athymic nude) of 1.1 ± 0.1 %ID/g, a tissue uptake at 0.25 h ([4]; nude) of 2.35 %ID/g and a tissue uptake at 0.5 h ([4]; nude) of 1.84 %ID/g. The tissue uptake at 1 h ([4]; nude) was 1.47 %ID/g and the tissue uptake at 2 h ([4]; nude) was 1.12 %ID/g.

For “^18F-FB-E[c(RGDyK)]2 [^18F-FRGD2, reference compound]”, the “residence time for kidneys” value [3] was 0.029 h.

With “^18F-fluoro-PEG-triazole-E(RGDyK)2 [^18F-FPTA-RGD2]” the “extraction efficiency (radioactivity in the supernatant)” value [5] was 86-99% and the “non-retained fraction (activity not trapped on C18 cartridges)” value [5] was 1-41%.
